Test results reported in patent US20160177395A1, “BIOMARKERS FOR THE PREDICTION OF RENAL INJURY” (priority 2007, published 2016).
Values joined by “and” are separate entries in the source; they are usually repeats but may differ in a detail not shown here. Equal entries are not always repeated. “Also recorded” adds a separate entry of the source.

Key:
[1] = system: kidney tissues of treated or untreated rats; test: Real-time qRT-PCR of signature amplicons, validation stage, labeled and un-labeled samples (Table 23); conditions: for H31883_DB71_seg13 normalized qRT-PCR result / MUSCYCG1R_DB81_seg19-20 normalized qRT-PCR result / W41270_DB81_seg11 normalized qRT-PCR result: un-labeled sample, one line per animal; for AI045075_DB71_seg6 normalized qRT-PCR expression (Interferon stimulated exonuclease 20 (ISG20) transcript) / H31883_DB71_seg13 normalized qRT-PCR expression (Cyclin-G1 (CCNG1) transcript) / MUSCYCG1R_DB81_seg19-20 normalized qRT-PCR expression / W41270_DB81_seg11 normalized qRT-PCR expression (tumor necrosis factor receptor superfamily, member 12a transcript) / W64472_DB81_seg2 normalized qRT-PCR expression (Interferon stimulated exonuclease 20 (ISG20) transcript) / W83813_DB81_seg27 normalized qRT-PCR expression: un-labeled samples, kidney of individual male/female rats
How it was run: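 Rat kidney RNA, labeled and un-labeled samples, run over seven plates; two amplicons per signature gene (wild-type and splice variant). Values normalized to housekeeping genes, then per plate and amplicon by geometric mean of ratios against a shuffled normalization plate (outliers removed), then scaled.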

rat kidney samples = test: Random-Forest classifiers applied to un-labeled samples of T1, T2, T3 and control (Table 30); conditions: for Average 'Toxic' (%): average of the two classifiers
Protocol: To validate the optimal signature for classification of renal toxicity of a compound after five days of application a test of the signatory polynucleotide/gene expression in rat kidney samples consisting of tissues from rats exposed to three drug compounds and a single control group was carried out (Teva Pharmaceutical Industries, IL).
The two optimal classifiers (signatures described in Tables 26 and 27) were applied to the qRT-PCR reads of the un-labeled samples and their calls was used to assign a level of toxicity to each group and, eventually, each compound.
The classifiers described in Tables 26 and 27, were used for testing the un-labeled samples. Both classifiers were applied to the measurements of each sample, used the 30% bound from above, and the number of samples pass that bound in each group were summarized.

kidney = test: Renal histopathology of rats treated with T1, T2, T3; format: in vivo, rat
Protocol: Each group consisted of 6 male and 6 female rats. The additional groups consisted of 6 males and 6 female rats treated with control compound for a single day and for five days, as described in Table 24.
T2 “no observed effect level” (NOEL, i.e., the maximal dose at which no toxic effect is visible) is 15 mg/kg.
At autopsy, both kidneys of each animal were removed and each kidney was cross sectioned. Half of each kidney was sent to RNA extraction and analysis.

[2] = Ds1, Day1, oral gavage, female rat kidney
[3] = Ds1, Day1, oral gavage, male rat kidney
[4] = Ds1, Day5, oral gavage, female rat kidney
[5] = Ds1, Day5, oral gavage, male rat kidney
[6] = Ds2, Day1, oral gavage, female rat kidney
[7] = Ds2, Day1, oral gavage, male rat kidney
[8] = Ds2, Day5, oral gavage, female rat kidney
[9] = Ds2, Day5, oral gavage, male rat kidney

CN(C)c1cccc2c1CCC2Nc1cc(=O)[nH]c(=O)[nH]1.Cl (stereo not shown) [T2]
H31883_DB71_seg13 normalized qRT-PCR result [1, 2]: 0.183 and 0.213 and 0.29 and 0.387
MUSCYCG1R_DB81_seg19-20 normalized qRT-PCR result [1, 2]: 0.54 and 0.419 and 0.836 and 0.49
W41270_DB81_seg11 normalized qRT-PCR result [1, 2]: 0.492 and 0.468 and 1.072 and 0.969
H31883_DB71_seg13 normalized qRT-PCR result [1, 3]: 0.955 and 0.798 and 0.931 and 1.182
MUSCYCG1R_DB81_seg19-20 normalized qRT-PCR result [1, 3]: 0.98 and 0.709 and 1.059 and 1.253
W41270_DB81_seg11 normalized qRT-PCR result [1, 3]: 0.801 and 0.791 and 1.076 and 1.477
H31883_DB71_seg13 normalized qRT-PCR result [1, 4]: 0.865 and 0.922 and 0.961 and 0.824 and 1.303
MUSCYCG1R_DB81_seg19-20 normalized qRT-PCR result [1, 4]: 0.771 and 1.02 and 1.923 and 1.232 and 0.94
W41270_DB81_seg11 normalized qRT-PCR result [1, 4]: 0.464 and 0.532 and 0.616 and 0.572 and 0.773
H31883_DB71_seg13 normalized qRT-PCR result [1, 5]: 0.11 and 0.209 and 0.27 and 0.299
MUSCYCG1R_DB81_seg19-20 normalized qRT-PCR result [1, 5]: 1.566 and 1.449 and 1.516 and 1.237
W41270_DB81_seg11 normalized qRT-PCR result [1, 5]: 1.445 and 1.42 and 1.258 and 1.447
H31883_DB71_seg13 normalized qRT-PCR result [1, 6]: 0.289 and 0.365 and 0.32 and 0.444 and 0.254
MUSCYCG1R_DB81_seg19-20 normalized qRT-PCR result [1, 6]: 2.008 and 0.857 and 3.044 and 2.152 and 0.71
W41270_DB81_seg11 normalized qRT-PCR result [1, 6]: 1.104 and 0.741 and 1.73 and 1.211 and 0.666
H31883_DB71_seg13 normalized qRT-PCR result [1, 7]: 0.773 and 0.595 and 0.741 and 0.777 and 0.725 and 0.614
MUSCYCG1R_DB81_seg19-20 normalized qRT-PCR result [1, 7]: 1.006 and 0.729 and 0.541 and 1.015 and 0.588 and 0.471
W41270_DB81_seg11 normalized qRT-PCR result [1, 7]: 1.462 and 0.692 and 0.656 and 1.23 and 0.866 and 0.837
H31883_DB71_seg13 normalized qRT-PCR result [1, 8]: 0.269 and 0.354
MUSCYCG1R_DB81_seg19-20 normalized qRT-PCR result [1, 8]: 0.799 and 3.003
W41270_DB81_seg11 normalized qRT-PCR result [1, 8]: 0.554 and 1.029
H31883_DB71_seg13 normalized qRT-PCR result [1, 9]: 0.615 and 1.022 and 0.962 and 0.626
MUSCYCG1R_DB81_seg19-20 normalized qRT-PCR result [1, 9]: 1.338 and 0.831 and 0.83 and 0.878
W41270_DB81_seg11 normalized qRT-PCR result [1, 9]: 0.899 and 1.446 and 0.623 and 1.049
AI045075_DB71_seg6 normalized qRT-PCR expression (Interferon stimulated exonuclease 20 (ISG20) transcript) ([1]; dose Ds1, Day1, oral gavage): 1.308 and 0.744 and 1.159
H31883_DB71_seg13 normalized qRT-PCR expression (Cyclin-G1 (CCNG1) transcript) ([1]; dose Ds1, Day1, oral gavage): 0.88 and 0.67 and 0.613 and 0.695 and 0.464 and 0.951 and 0.536 and 0.646 and 0.629 and 0.7 (2×)
MUSCYCG1R_DB81_seg19-20 normalized qRT-PCR expression ([1]; dose Ds1, Day1, oral gavage): 0.938 and 0.555 and 0.115 and 0.859 and 0.124 and 0.888 and 0.267 and 0.157 and 0.47 and 0.126 and 0.51
W41270_DB81_seg11 normalized qRT-PCR expression (tumor necrosis factor receptor superfamily, member 12a transcript) ([1]; dose Ds1, Day1, oral gavage): 0.481 and 0.662 and 0.473 and 0.76 and 0.474 and 0.876 and 0.959 and 0.518 and 0.823 and 3.38 and 0.623
W64472_DB81_seg2 normalized qRT-PCR expression (Interferon stimulated exonuclease 20 (ISG20) transcript) ([1]; dose Ds1, Day1, oral gavage): 1.863 and 0.632 and 1.305
W83813_DB81_seg27 normalized qRT-PCR expression ([1]; dose Ds1, Day1, oral gavage): 0.305 and 0.666 and 0.84
AI045075_DB71_seg6 normalized qRT-PCR expression (Interferon stimulated exonuclease 20 (ISG20) transcript) ([1]; dose Ds1, Day5, oral gavage): 1.016 and 1.11
H31883_DB71_seg13 normalized qRT-PCR expression (Cyclin-G1 (CCNG1) transcript) ([1]; dose Ds1, Day5, oral gavage): 1.884 and 1.539 and 1.163 and 1.329 and 1.66 and 1.079 and 0.936 and 0.978 and 1.439 and 1.149 and 2.147
MUSCYCG1R_DB81_seg19-20 normalized qRT-PCR expression ([1]; dose Ds1, Day5, oral gavage): 0.107 and 0.113 and 1.399 and 1.006 and 0.148 and 0.127 and 0.736 and 1.386 and 1.293 and 0.172 and 0.179
W41270_DB81_seg11 normalized qRT-PCR expression (tumor necrosis factor receptor superfamily, member 12a transcript) ([1]; dose Ds1, Day5, oral gavage): 0.233 and 0.493 and 0.626 and 1.149 and 0.321 and 0.477 and 0.83 and 1.524 and 1.111 and 0.397 and 0.337
W64472_DB81_seg2 normalized qRT-PCR expression (Interferon stimulated exonuclease 20 (ISG20) transcript) ([1]; dose Ds1, Day5, oral gavage): 0.929 and 0.996
W83813_DB81_seg27 normalized qRT-PCR expression ([1]; dose Ds1, Day5, oral gavage): 0.248 and 0.203
AI045075_DB71_seg6 normalized qRT-PCR expression (Interferon stimulated exonuclease 20 (ISG20) transcript) ([1]; dose Ds2, Day1, oral gavage): 1.43
H31883_DB71_seg13 normalized qRT-PCR expression (Cyclin-G1 (CCNG1) transcript) ([1]; dose Ds2, Day1, oral gavage): 0.832 and 0.773 and 0.635 and 0.722 and 0.618 and 0.999 and 0.602 and 0.522 and 1.006 and 1.079 and 0.84 and 0.762
MUSCYCG1R_DB81_seg19-20 normalized qRT-PCR expression ([1]; dose Ds2, Day1, oral gavage): 0.211 and 0.531 and 0.505 and 0.585 and 0.475 and 0.661 and 0.197 and 0.458 and 0.167 and 0.192 and 0.14 and 0.111
W41270_DB81_seg11 normalized qRT-PCR expression (tumor necrosis factor receptor superfamily, member 12a transcript) ([1]; dose Ds2, Day1, oral gavage): 1.747 and 1.016 and 0.424 and 0.589 and 0.545 and 0.528 and 0.384 and 0.577 and 1.729 and 1.125 and 0.594 and 0.92
W64472_DB81_seg2 normalized qRT-PCR expression (Interferon stimulated exonuclease 20 (ISG20) transcript) ([1]; dose Ds2, Day1, oral gavage): 0.804
W83813_DB81_seg27 normalized qRT-PCR expression ([1]; dose Ds2, Day1, oral gavage): 0.201
AI045075_DB71_seg6 normalized qRT-PCR expression (Interferon stimulated exonuclease 20 (ISG20) transcript) ([1]; dose Ds2, Day5, oral gavage): 0.609 and 1.842 and 0.637
H31883_DB71_seg13 normalized qRT-PCR expression (Cyclin-G1 (CCNG1) transcript) ([1]; dose Ds2, Day5, oral gavage): 1.386 and 0.676 and 1.01 and 1.128 and 1.161 and 1.146 and 1.057 and 0.942 and 1.256
MUSCYCG1R_DB81_seg19-20 normalized qRT-PCR expression ([1]; dose Ds2, Day5, oral gavage): 0.345 and 0.169 and 0.513 and 0.148 and 0.185 and 0.997 and 0.746 and 0.686 and 0.655
W41270_DB81_seg11 normalized qRT-PCR expression (tumor necrosis factor receptor superfamily, member 12a transcript) ([1]; dose Ds2, Day5, oral gavage): 1.186 and 0.308 and 0.497 and 0.711 and 1.237 and 0.857 and 0.788 and 0.457 and 0.668
W64472_DB81_seg2 normalized qRT-PCR expression (Interferon stimulated exonuclease 20 (ISG20) transcript) ([1]; dose Ds2, Day5, oral gavage): 0.731 and 1.178 and 0.485
W83813_DB81_seg27 normalized qRT-PCR expression ([1]; dose Ds2, Day5, oral gavage): 0.601 and 0.555 and 0.354
Average 'Toxic' (%) (rat kidney samples; Ds1 Day1 Female): 20%
Average 'Toxic' (%) (rat kidney samples; Ds1 Day1 Male): 25%
Average 'Toxic' (%) (rat kidney samples; Ds1 Day5 Female): 30%
Average 'Toxic' (%) (rat kidney samples; Ds1 Day5 Male): 83%
Average 'Toxic' (%) (rat kidney samples; Ds2 Day1 Female): 58.5%
Average 'Toxic' (%) (rat kidney samples; Ds2 Day1 Male): 0%
Average 'Toxic' (%) (rat kidney samples; Ds2 Day5 Female): 50%
Average 'Toxic' (%) (rat kidney samples; Ds2 Day5 Male): 30%
Toxicity conclusion from classifier calls (rat kidney samples; signatures of Tables 26 and 27, 30% bound): nephrotoxic agents
Kidney histopathology findings (kidney; 50 mg/kg, after 7 days): direct cortical tubular toxicity; also recorded: multifocal, consisting of tubular basophilia, indicating regeneration following necrosis; also recorded: basophilic tubules in the cortex, indicating post-necrotic regeneration
Time after which visible pathological damage was seen (kidney; rats): 7 days
no observed effect level (NOEL) (kidney; rats): 15 mg/kg
Renal damage (kidney; rats, dose and duration as in the value): renal damage after 7 days of treatment at the 50 mg/kg dose
